Here are results for 38 substances from patent US20120214862A1, “MODULATION OF FACTOR 7 EXPRESSION” (ISIS Pharmaceuticals, Inc., priority 2009, published 2012).

In the oligonucleotide strings, read from the 5' end, every base follows the letter of its sugar. An asterisk marks phosphorothioate; unmarked linkages are phosphodiester. Other units and linkages are bracketed, terminal groups are in braces. A string of capitals states the bases alone. e = 2'-O-(2-methoxyethyl) (MOE); [5mC] = 5-methylcytosine; d = 2'-deoxy (DNA)

For the series, the system named is human Factor 7 mRNA. The series can be described thus: Inhibition of human Factor 7 mRNA by 2-10-2 MOE shortmers in HepB3 cells, electroporation, 1,000 nM. Type of series: cell-based. Conditions: electroporation, 1,000 nM oligonucleotide, approximately 24 hours, relative to untreated control cells. A digest of the protocol:
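14-mer 2-10-2 2′-MOE gapmers, full phosphorothioate, 5-methylcytidines, electroporated at 1,000 nM into HepB3 cells (20,000/well). After ~24 h, mRNA quantified by real-time RT-PCR, normalized to RIBOGREEN total RNA; percent inhibition relative to untreated cells.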
For “435718 (antisense eG*e[5mC]*dT*d[5mC]*dG*d[5mC]*dA*dG*dG*dA*dG*dG*eA*e[5mC]) [compound 435718]”, the “% inhibition of human Factor 7 mRNA” value is 26%.
Under “435803 (antisense eG*eA*dG*dA*dA*dT*dT*dG*d[5mC]*d[5mC]*d[5mC]*dA*eG*eG) [compound 435803]” stands 0%; under “435504 (antisense eA*eT*dG*dT*dA*d[5mC]*dT*dG*dG*dG*dA*dG*eA*e[5mC]) [compound 435504]”, 8%.
To “435640 (antisense eT*eG*dT*dA*dA*dG*dA*dA*dA*dT*d[5mC]*d[5mC]*eA*eG) [compound 435640]” belongs 2%.
Consider “435769 (antisense eT*eT*d[5mC]*dT*dT*dT*dG*dA*dA*dA*dA*dA*eT*eA) [compound 435769]”, for which the “% inhibition of human Factor 7 mRNA” value was 0%.
Under “435496 (antisense eG*eG*dA*dG*dA*d[5mC]*d[5mC]*d[5mC]*dT*dG*dG*dT*eG*eT) [compound 435496]” stands 47%.
To “435838 (antisense eT*e[5mC]*d[5mC]*dA*dT*dG*dG*dA*d[5mC]*dA*d[5mC]*dT*eA*eA) [compound 435838]” belongs 29%; to “435494 (antisense eA*eG*dA*d[5mC]*d[5mC]*d[5mC]*dT*dG*dG*dT*dG*dT*eA*e[5mC]) [compound 435494]”, 47%; to “435805 (antisense eT*eG*dA*dA*dT*dT*dA*d[5mC]*dT*dG*dA*dA*e[5mC]*e[5mC]) [compound 435805]”, 0%.
On to “435649 (antisense eA*eG*dG*d[5mC]*dA*dG*dA*dA*dG*d[5mC]*dA*dG*eA*eT) [compound 435649]”, for which the “% inhibition of human Factor 7 mRNA” value was found to be 21%.
To “435790 (antisense eA*eT*dG*dA*d[5mC]*d[5mC]*dA*dT*d[5mC]*d[5mC]*dT*d[5mC]*eA*eA) [compound 435790]” belongs 1%; to “435491 (antisense e[5mC]*e[5mC]*d[5mC]*dT*dG*dG*dT*dG*dT*dA*d[5mC]*dA*e[5mC]*e[5mC]) [compound 435491]”, 61%.
To “435738 (antisense e[5mC]*eA*dG*dA*dG*dG*dA*dT*dG*dA*dG*d[5mC]*eA*e[5mC]) [compound 435738]” belongs 16%; to “435644 (antisense eT*eG*dG*dT*d[5mC]*d[5mC]*dT*dT*dG*d[5mC]*dA*dG*eG*eA) [compound 435644]”, 30%.
On to “435500 (antisense eA*e[5mC]*dT*dG*dG*dG*dA*dG*dA*d[5mC]*d[5mC]*d[5mC]*eT*eG) [compound 435500]”, for which the “% inhibition of human Factor 7 mRNA” value came to 49%.
To “435728 (antisense eA*e[5mC]*dA*d[5mC]*dA*dT*dG*dG*dA*dG*dT*d[5mC]*eA*eG) [compound 435728]” belongs 16%; to “435647 (antisense eA*eG*dA*dT*dA*dT*dA*dG*dG*dA*d[5mC]*dT*eG*eG) [compound 435647]”, 0%.
Under “435669 (antisense eG*eG*dA*d[5mC]*d[5mC]*dT*dG*d[5mC]*d[5mC]*dA*dT*dG*eG*eA) [compound 435669]” stands 36%; under “435776 (antisense eG*eG*dG*dA*d[5mC]*dA*d[5mC]*dT*d[5mC]*dA*d[5mC]*dA*e[5mC]*eT) [compound 435776]”, 51%.
To “435677 (antisense eG*eT*dG*d[5mC]*dT*d[5mC]*dG*d[5mC]*d[5mC]*d[5mC]*dA*dG*e[5mC]*eA) [compound 435677]” belongs 60%.
As for “435685 (antisense eA*eG*dG*dA*d[5mC]*d[5mC]*dA*d[5mC]*dG*dG*dG*d[5mC]*eT*eG) [compound 435685]”, the “% inhibition of human Factor 7 mRNA” value is 40%.
Turning to “435795 (antisense eA*e[5mC]*dA*d[5mC]*d[5mC]*d[5mC]*dG*dA*dG*dG*dT*dT*e[5mC]*eA) [compound 435795]”, the “% inhibition of human Factor 7 mRNA” value stood at 66%.
Under “435635 (antisense e[5mC]*eA*dT*dG*dA*dT*dG*dA*dA*dA*dT*d[5mC]*eT*e[5mC]) [compound 435635]” stands 0%; under “435698 (antisense e[5mC]*e[5mC]*dT*dT*dG*d[5mC]*dA*dG*dG*dA*dG*dT*e[5mC]*e[5mC]) [compound 435698]”, 61%; under “435673 (antisense eA*eG*dA*d[5mC]*d[5mC]*dA*d[5mC]*d[5mC]*d[5mC]*dA*dG*dA*eT*eG) [compound 435673]”, 34%.
Under “435641 (antisense eG*eG*dT*d[5mC]*d[5mC]*d[5mC]*d[5mC]*dA*dT*d[5mC]*dA*d[5mC]*eT*eG) [compound 435641]” stands 51%; under “435791 (antisense eA*eT*dG*dA*dG*dA*dA*dA*dT*dG*d[5mC]*dT*eT*eT) [compound 435791]”, 0%.
To “435733 (antisense e[5mC]*eT*dG*dA*dA*dT*dT*dG*dT*d[5mC]*dT*dG*eA*eA) [compound 435733]” belongs 5%; to “435817 (antisense e[5mC]*eT*dG*dA*dG*d[5mC]*dT*dT*dG*dG*d[5mC]*dA*e[5mC]*e[5mC]) [compound 435817]”, 39%; to “435690 (antisense eG*eT*d[5mC]*d[5mC]*dG*dT*dT*d[5mC]*dG*dG*dG*d[5mC]*eA*eG) [compound 435690]”, 55%.
As for “435724 (antisense e[5mC]*eT*dG*dA*dG*dG*d[5mC]*d[5mC]*dA*dG*d[5mC]*dA*eG*eA) [compound 435724]”, the “% inhibition of human Factor 7 mRNA” value amounted to 52%.
“435841 (antisense e[5mC]*eT*d[5mC]*dG*dG*dA*d[5mC]*dA*dA*dA*dA*dG*eA*eG) [compound 435841]”: the “% inhibition of human Factor 7 mRNA” value was 1%.
To “435691 (antisense e[5mC]*eA*dG*d[5mC]*d[5mC]*dG*d[5mC]*dT*dG*dA*d[5mC]*d[5mC]*eA*eA) [compound 435691]” belongs 25%.
As for “435660 (antisense e[5mC]*e[5mC]*dG*dT*d[5mC]*dT*dG*d[5mC]*d[5mC]*dA*dG*d[5mC]*eA*eG) [compound 435660]”, the “% inhibition of human Factor 7 mRNA” value amounted to 58%.
Consider “435687 (antisense eA*eT*dG*dG*dT*d[5mC]*dA*dG*dT*dG*dA*dG*eG*eA) [compound 435687]”, for which the “% inhibition of human Factor 7 mRNA” value was determined as 7%.
Under “435832 (antisense eT*eG*d[5mC]*dT*d[5mC]*dA*dG*dA*d[5mC]*d[5mC]*dT*dG*eG*e[5mC]) [compound 435832]” stands 70%; under “435778 (antisense eG*e[5mC]*dT*dA*d[5mC]*dT*dG*dG*dG*d[5mC]*d[5mC]*dA*e[5mC]*eG) [compound 435778]”, 49%.
To “435697 (antisense eA*eG*dT*dA*dG*d[5mC]*d[5mC]*dG*dG*d[5mC]*dA*d[5mC]*eA*eG) [compound 435697]” belongs 53%.
